Common to all, as to assay: DTP human tumour cell line panel, 48 h
For experiment [1], the system named is CAKI-1.
Experiment [2] concerns HCT-116.
Experiment [3] deals with HCT-15.
In experiment [4] the test system is HOP-92.
The subject of experiment [5] is HT-29.
In experiment [6] the test system is KM12.
Experiment [7] relates to MCF7.
Experiment [8] relates to MDA-N.
Experiment [9] concerns MOLT-4.
In experiment [10] the test system is Malme-3M.
Experiment [11] relates to NCI-H460.
Experiment [12] relates to OVCAR-3.
In experiment [13] the test system is OVCAR-5.
The subject of experiment [14] is SK-MEL-2.
The test system of experiment [15] is UACC-257.
The subject of experiment [16] is UACC-62.
Experiment [17] has as its system EKVX.
For experiment [18], the system named is UO-31.
Experiment [19] relates to SF-295.

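Tested at 5 concentrations; 48 h exposure; 96-well plates; endpoints linearly interpolated, else capped at highest concentration. GI50: concentration for 50% inhibition of growth.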 Active and inactive are the calls of the source. No stated cut-off is given here; in the data, active = GI50 up to about 1.1 µM and inactive = higher. Where a SMILES comes first, the peptide text is derived from it. [ ]: non-standard residue; d: D form. The star is where a group is joined. Phe(4-NO2) = N[CH](Cc1ccc([N+](=O)[O-])cc1)C(=O)O; Boc = CC(C)(C)OC(=O)* Some results are limits rather than exact numbers.

In the case of `C[C@H]1C(OCCOC2O[C@@H]3O[C@@]4(C)CC[C@H]5[C@H](C)CCC([C@H]2C)[C@@]35O4)O[C@@H]2O[C@@]3(C)CC[C@H]4[C@H](C)CCC1[C@@]24O3` (stereo partly specified), the GI50 (in general, the concentration giving 50% growth inhibition) in [1] was 37.2 µM (inactive); in [2], 21 µM (inactive); in experiment [3], 28.2 µM; in experiment [4], 45.3 µM (inactive); in experiment [5], 35.4 µM (inactive); in experiment [6] it was 27.5 µM (inactive). In addition, the GI50 is 37 µM (inactive) in [7]; 38.7 µM (inactive) in experiment [8]; 58.6 µM (inactive) in experiment [9]; 15.8 µM (inactive) in [10]; 22.6 µM (inactive) in experiment [11]; 28.1 µM (inactive) in experiment [12]. Also, the GI50 was 50.7 µM (inactive) in experiment [13], 17.7 µM (inactive) in experiment [14], 33.1 µM (inactive) in experiment [15] and 61.2 µM (inactive) in experiment [16].

For the molecule `CCOC(=O)CCC(NC(=O)C(Cc1ccc([N+](=O)[O-])cc1)NC(=O)OC(C)(C)C)C(=O)NC(CCC(=O)OCC)C(=O)OCC` (stereo unspecified) (Boc-[Phe(4-NO2)]-Glu(OEt)-Glu(OEt)-OEt; configuration not given here), the GI50 was > 10 µM (inactive) in [17]; 18.3 µM (inactive) in experiment [2]; 36 µM in experiment [3]; 15.8 µM (inactive) in experiment [4]; 16.3 µM (inactive) in experiment [5]; 11.7 µM (inactive) in [6]. In addition, the GI50 in experiment [7] is 28 µM (inactive); in experiment [8], 21.1 µM (inactive); in experiment [9] it was 2.73 µM (inactive); in experiment [10], 18.2 µM (inactive); in [11] it was 23.4 µM (inactive); in experiment [13], 20.7 µM (inactive). Also, the GI50 in experiment [14] is 13.2 µM (inactive); in [15], > 10 µM (inactive); in experiment [16], 16.8 µM (inactive); in experiment [18] it was > 100 µM (inactive).

On to `COc1ccc(/C=N\N2CC(=O)N3C4C=CC(CC4)N3C2=O)cc1` (stereo unspecified), for which the GI50 in experiment [1] was > 100 µM (inactive); in experiment [17], > 100 µM (inactive); in [2], > 100 µM (inactive); in experiment [3] it was > 100 µM; in experiment [4], > 100 µM (inactive); in experiment [5] it was > 100 µM (inactive). The GI50 in experiment [6], in experiment [7], in experiment [8], in experiment [9], in [11] and in experiment [12] was > 100 µM (inactive) each time. The GI50 is > 100 µM (inactive) in [13]; > 100 µM (inactive) in experiment [19]; > 100 µM (inactive) in experiment [14]; > 100 µM (inactive) in experiment [15]; 74.8 µM (inactive) in experiment [16]; > 100 µM (inactive) in experiment [18].

For `C[C@]12[C@@H]3CC[C@H]1[C@@H](O)C(=O)N2CC3`, the GI50 in [1] was > 100 µM (inactive); in experiment [17], > 100 µM (inactive); in experiment [2] it was > 100 µM (inactive); in experiment [3], > 100 µM; in experiment [4] it was > 100 µM (inactive); in experiment [5] it was > 100 µM (inactive). The GI50 in experiment [6], in [7], in experiment [8], in experiment [9], in experiment [10] and in experiment [11] was > 100 µM (inactive) throughout. The GI50 in experiment [13], in experiment [19], in [14], in experiment [15], in [16] and in experiment [18] was > 100 µM (inactive) each time.

For `FC(F)(Sc1nc2ccccc2[nH]1)c1nc2ccccc2o1`, the GI50 in experiment [1] is > 100 µM (inactive); in [2], > 100 µM (inactive); in experiment [3], > 100 µM; in [4] it was > 100 µM (inactive); in experiment [5], > 100 µM (inactive); in [6] it was > 100 µM (inactive). Moreover, the GI50 in experiment [7] is > 100 µM (inactive); in experiment [8], > 100 µM (inactive); in [9], > 100 µM (inactive); in [10] it was 24.4 µM (inactive); in [11] it was > 100 µM (inactive); in [12] it was > 100 µM (inactive). In addition, the GI50 in [13], in experiment [19], in experiment [14], in experiment [15], in experiment [16] and in [18] was > 100 µM (inactive) throughout.

Consider `O=C1CCC(N2C(=O)c3ccccc3C2=O)C(=O)N1` (stereo unspecified) [THALIDOMIDE], for which the GI50 in experiment [1] is > 100 µM (inactive); in experiment [17] it was > 100 µM (inactive); in experiment [2] it was > 100 µM (inactive); in experiment [3], > 100 µM; in experiment [4], > 100 µM (inactive); in [6] it was > 100 µM (inactive). In addition, the GI50 in experiment [7], in experiment [8], in [9], in [10], in experiment [11] and in [13] was > 100 µM (inactive) in each case. Besides, the GI50 in [19], in experiment [14], in experiment [15], in [16] and in experiment [18] was > 100 µM (inactive) each time.

`COc1cc(CC(C)=O)cc(OC)c1`: the GI50 is 67.5 µM (inactive) in [17]; 50.6 µM (inactive) in experiment [2]; 31.6 µM in experiment [3]; 29.9 µM (inactive) in experiment [4]; 42.8 µM (inactive) in experiment [5]; 34.2 µM (inactive) in [7]. Also, the GI50 in experiment [8] was 27.4 µM (inactive); in experiment [9] it was 24.7 µM (inactive); in experiment [10] it was 51.2 µM (inactive); in experiment [11], > 100 µM (inactive); in experiment [12], 56.5 µM (inactive); in [13], > 100 µM (inactive). For the same molecule, the GI50 in [19] was 91 µM (inactive); in experiment [15] it was > 100 µM (inactive); in experiment [16] it was 60.3 µM (inactive); in experiment [18], 32.6 µM (inactive).

In the case of `O=C1CCCC/C1=C\c1ccc([N+](=O)[O-])cc1`, the GI50 was 18.5 µM (inactive) in experiment [1]; 39.6 µM (inactive) in experiment [17]; 12.4 µM (inactive) in experiment [2]; 19.6 µM (inactive) in experiment [4]; 37.3 µM (inactive) in experiment [5]; 18.3 µM (inactive) in [6]. For the same molecule, the GI50 in experiment [7] is 18.5 µM (inactive); in [8], 17.8 µM (inactive); in experiment [9], 5.48 µM (inactive); in [11], 35.4 µM (inactive); in experiment [12], 27.5 µM (inactive); in [13] it was 54.2 µM (inactive). In addition, the GI50 in experiment [19] is 18.2 µM (inactive); in [14] it was 21.5 µM (inactive); in [15], 15.5 µM (inactive); in experiment [16] it was 16.7 µM (inactive); in [18], 19.3 µM (inactive).
